target: BRD4 (Homo sapiens (Human), UniProt O60885); conditions: read-out: BRD4 IC50 (μM gmean)

**Q.** For `COC(=O)N1c2ccc3c(nc(CC(C(=O)O)c4ccccc4)n3-c3ccc(OC)cc3)c2CC[C@@H]1C` (stereo partly shown) [Example 849], which IC50 is on record?
**A.** 1 to 1000 µM

**Q.** With `COC(=O)N1c2ccc3c(nc(CN4CCC5(CCC5)CC4=O)n3[C@@H]3CCC[C@@H](C(=O)O)C3)c2CC[C@@H]1C` [Example 634] as the compound, how does the IC50 read?
**A.** 1 to 1000 µM

**Q.** How did the IC50 turn out when `COC(=O)N1c2ccc3c(nc(C(C)Cn4cccn4)n3C3CCC(C(=O)O)CC3)c2CC[C@@H]1C` (stereo partly shown) [Example 627] was run?
**A.** 1 to 1000 µM

**Q.** With `COC(=O)N1c2ccc3c(nc(CCn4cccn4)n3CC(=O)NCc3cnn(C)c3)c2CC[C@@H]1C` [Example 344] as the compound, how does the IC50 read?
**A.** 1 to 1000 µM

**Q.** With `COC(=O)N1c2ccc3c(nc(Nc4ccnc(C)c4)n3[C@H]3CC[C@H](C(=O)O)CC3)c2CC[C@@H]1C` [Example 943] as the compound, how does the IC50 read?
**A.** 1 to 1000 µM

**Q.** Which IC50 does the source give for `COC(=O)N1c2ccc3c(nc(CCn4ccccc4=O)n3CC(=O)NCC3(C)COC3)c2CC[C@@H]1C` [Example 392] here?
**A.** 1 to 1000 µM

**Q.** `COC(=O)N1c2ccc3c(nc(CCn4cccn4)n3CC(=O)NCCc3ccccn3)c2CC[C@@H]1C` [Example 338] was tested. Which IC50 did it give?
**A.** 1 to 1000 µM

**Q.** `COC(=O)N1c2ccc3c(nc(CCn4ccccc4=O)n3CC(=O)NCCN3CCNC3=O)c2CC[C@@H]1C` [Example 395] was tested. Which IC50 did it give?
**A.** 1 to 1000 µM

**Q.** `COC(=O)N1c2ccc3c(nc(CCn4nccn4)n3C3CCS(=O)(=O)CC3)c2CC[C@@H]1C` [Example 275] was tested. Which IC50 did it give?
**A.** 1 to 1000 µM

**Q.** For `COC(=O)N1c2ccc3c(nc(C(C)Cc4cnn(C)c4)n3C3CCC(C(=O)O)CC3)c2CC[C@@H]1C` (stereo partly shown) [Example 671], which IC50 is on record?
**A.** 1 to 1000 µM

**Q.** `COC(=O)N1c2ccc3c(nc(CC(C(=O)O)c4ccc(C(F)F)cc4)n3C3CCCOC3)c2CC[C@@H]1C` (stereo partly shown) [Example 584] was tested. Which IC50 did it give?
**A.** 1 to 1000 µM

**Q.** For `COC(=O)N1c2ccc3c(nc(CC(C(=O)O)c4ccc(C)cc4)n3C3CCCOC3)c2CC[C@@H]1C` (stereo partly shown) [Example 829], which IC50 is on record?
**A.** 1 to 1000 µM

**Q.** How did the IC50 turn out when `COC(=O)N1c2ccc3c(nc(CC(C(=O)O)c4ccc(C(C)C)cc4)n3C3CCCOC3)c2CC[C@@H]1C` (stereo partly shown) [Example 756] was run?
**A.** 1 to 1000 µM

**Q.** How did the IC50 turn out when `COC(=O)N1c2ccc3c(nc(CCn4ccccc4=O)n3CC(=O)NCC#N)c2CC[C@@H]1C` [Example 394] was run?
**A.** 1 to 1000 µM

**Q.** For `COC(=O)N1c2ccc3c(nc(CCn4ccccc4=O)n3C)c2CC[C@@H]1C` [Example 15], which IC50 is on record?
**A.** 1 to 1000 µM

**Q.** `COC(=O)N1c2ccc3c(nc(CCn4ccccc4=O)n3CC(=O)NC3COC3)c2CC[C@@H]1C` [Example 393] was tested. Which IC50 did it give?
**A.** 1 to 1000 µM

**Q.** With `COC(=O)N1c2ccc3c(nc(CC(C(=O)O)c4cccc(F)c4)n3C3CCCOC3)c2CC[C@@H]1C` (stereo partly shown) [Example 728] as the compound, how does the IC50 read?
**A.** 1 to 1000 µM

**Q.** Which IC50 does the source give for `COC(=O)N1c2ccc3c(nc(COC4CCOCC4)n3[C@@H]3CCC[C@@H](C(=O)O)C3)c2CC[C@@H]1C` [Example 741] here?
**A.** 1 to 1000 µM

**Q.** `COC(=O)N1c2ccc3c(nc(Cc4ccc(OC)cc4)n3[C@@H]3CCC[C@@H](C(=O)O)C3)c2CC[C@@H]1C` [Example 568] was tested. Which IC50 did it give?
**A.** 1 to 1000 µM

**Q.** `COC(=O)N1c2ccc3c(nc(CCC4CCOCC4)n3[C@H]3CC[C@H](C(=O)O)CC3)c2CC[C@@H]1C` [Example 784] was tested. Which IC50 did it give?
**A.** 1 to 1000 µM

**Q.** `COC(=O)N1c2ccc3c(nc(CCn4cccn4)n3CCN3CCOCC3)c2CC[C@@H]1C` [Example 226] was tested. Which IC50 did it give?
**A.** 1 to 1000 µM

**Q.** For `COC(=O)N1c2ccc3c(nc(C(CO)c4ccccc4)n3C3CCCC(C(=O)O)C3)c2CC[C@@H]1C` (stereo partly shown) [Example 505], which IC50 is on record?
**A.** 1 to 1000 µM

**Q.** `COC(=O)N1c2ccc3c(nc(CC(C(=O)O)c4ccc(F)cc4)n3C3CCCOC3)c2CC[C@@H]1C` (stereo partly shown) [Example 773] was tested. Which IC50 did it give?
**A.** 1 to 1000 µM

**Q.** `COC(=O)N1c2ccc3c(nc(CCn4cccn4)n3CC(=O)NCc3ncnn3C)c2CC[C@@H]1C` [Example 371] was tested. Which IC50 did it give?
**A.** 1 to 1000 µM

**Q.** For `COC(=O)N1c2ccc3c(nc(COc4ccccc4)n3[C@H]3CC[C@H](C(=O)O)CC3)c2CC[C@@H]1C` [Example 633], which IC50 is on record?
**A.** 1 to 1000 µM

**Q.** With `COC(=O)N1c2ccc3c(nc(CC4CCOCC4)n3[C@@H]3CCC[C@@H](C(=O)O)C3)c2CC[C@@H]1C` [Example 863] as the compound, how does the IC50 read?
**A.** 1 to 1000 µM

**Q.** With `COC(=O)N1c2ccc3c(nc(CC(C(=O)O)c4ccc(C)cc4)n3C3CCCOC3)c2CC[C@@H]1C` (stereo partly shown) [Example 497] as the compound, how does the IC50 read?
**A.** 1 to 1000 µM

**Q.** Which IC50 does the source give for `COC(=O)N1c2ccc3c(nc(Cc4ccc5[nH]ccc5c4)n3[C@@H]3CCC[C@@H](C(=O)O)C3)c2CC[C@@H]1C` [Example 577] here?
**A.** 1 to 1000 µM
